Values after ≈ are worked out from the molar mass of the structure shown.

The nature of data set [1]: Distribution coefficient, logD of compound at pH 7.4. In kind it is physicochemical. As to conditions: octanol/water.
Data set [2] addresses Heat shock protein HSP 90-alpha (Homo sapiens, UniProt P07900). The data set can be described thus: Displacement of FITC-geldanamycin from N-terminal HSP90alpha (unknown origin) after 30 mins by fluorescence polarization competitive binding assay.
The nature of data set [3]: Permeability of the compound at pH 7.4 by PAMPA. The settings on record: read-out: permeability. In kind it is ADME. In general terms: The PAMPA barrier holds no transporters, so it reflects passive diffusion.
Data set [4] can be described thus: Intrinsic aqueous solubility of the compound. The class given is physicochemical.
Another data set deals with Endoplasmin (Homo sapiens, UniProt P14625). Put plainly: Displacement of FITC-geldanamycin from N-terminal GRP94 (unknown origin) after 30 mins by fluorescence polarization competitive binding assay. (In general: Polarisation of emitted light reports the rotation of a fluorescent probe.)
Endoplasmin, sequence (P14625 whole entry): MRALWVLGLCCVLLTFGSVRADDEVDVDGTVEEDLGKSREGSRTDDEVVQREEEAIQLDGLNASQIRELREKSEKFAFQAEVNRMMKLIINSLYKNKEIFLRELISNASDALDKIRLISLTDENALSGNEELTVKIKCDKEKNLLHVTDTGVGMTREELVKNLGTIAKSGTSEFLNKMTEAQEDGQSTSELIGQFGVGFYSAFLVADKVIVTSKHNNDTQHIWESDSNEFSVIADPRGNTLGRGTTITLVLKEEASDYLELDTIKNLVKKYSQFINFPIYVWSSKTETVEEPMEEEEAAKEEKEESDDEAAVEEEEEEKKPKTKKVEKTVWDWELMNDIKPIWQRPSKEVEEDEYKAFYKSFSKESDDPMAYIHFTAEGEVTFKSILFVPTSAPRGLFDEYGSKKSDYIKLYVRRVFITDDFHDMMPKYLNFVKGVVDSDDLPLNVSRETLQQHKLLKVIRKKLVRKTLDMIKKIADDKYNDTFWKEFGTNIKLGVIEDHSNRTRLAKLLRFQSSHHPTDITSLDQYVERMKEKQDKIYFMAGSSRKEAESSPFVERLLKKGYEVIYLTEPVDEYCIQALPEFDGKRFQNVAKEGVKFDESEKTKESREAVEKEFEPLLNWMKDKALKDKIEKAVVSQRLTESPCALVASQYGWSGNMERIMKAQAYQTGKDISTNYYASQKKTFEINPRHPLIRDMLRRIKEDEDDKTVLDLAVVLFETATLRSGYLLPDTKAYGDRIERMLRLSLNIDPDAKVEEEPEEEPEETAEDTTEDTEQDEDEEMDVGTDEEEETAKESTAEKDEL
Data set [5] in a line: Selectivity ratio of IC50 for inhibition of FITC-geldanamycin binding to N-terminal GRP94 (unknown origin) to IC50 for inhibition of FITC-geldanamycin binding to N-terminal HSP90alpha (unknown origin).
Another data set relates to HCT-116. Put plainly: cells. As to conditions: Homo sapiens, HCT-116, 72 h.
The subject of a further data set is MCF7. Put plainly: cells. The settings on record: Homo sapiens, MCF7, 72 h.
The next data set concerns MDA-MB-231. The data set can be described thus: Antiproliferative activity against human MDA-MB-231 assessed as reduction in cell viability incubated for 72 hrs by MTT assay. The class given is functional, cell-based. The settings on record: MDA-MB-231, 72 h. (In general: Tetrazolium assays rely on reduction of a dye to a coloured formazan, in cell work by metabolically active cells.)

For the next data set, the system named is MDA-MB-468. The data set can be described thus: Antiproliferative activity against human MDA-MB-468 assessed as reduction in cell viability incubated for 72 hrs by MTT assay. The class given is functional, cell-based. As to conditions: MDA-MB-468, 72 h.
For another data set, the system named is SK-BR-3. The data set can be described thus: Antiproliferative activity against human SK-BR-3 assessed as reduction in cell viability incubated for 72 hrs by MTT assay. In kind it is functional, cell-based. As to conditions: SK-BR-3, 72 h.
The subject of another data set is T47D. Put plainly: Antiproliferative activity against human T47D assessed as reduction in cell viability incubated for 72 hrs by MTT assay. In kind it is functional, cell-based.
The test system of a further data set is BT-474. The data set can be described thus: Antiproliferative activity against human BT-474 assessed as reduction in cell viability incubated for 72 hrs by MTT assay. In kind it is functional, cell-based. The settings on record: BT-474, 72 h.
In the next data set the test system is U2OS. The data set can be described thus: Antiproliferative activity against human U2OS assessed as reduction in cell viability incubated for 72 hrs by MTT assay. The class given is functional, cell-based.
Another data set concerns MKN-28. The data set can be described thus: Antiproliferative activity against human MKN-28 assessed as reduction in cell viability incubated for 72 hrs by MTT assay. The class given is functional, cell-based. As to conditions: MKN-28, 72 h.
The next data set relates to A549. Put plainly: Antiproliferative activity against human A549 assessed as reduction in cell viability incubated for 72 hrs by MTT assay. The class given is functional, cell-based. The settings on record: A549, 72 h.
A further data set concerns HepG2. Put plainly: Antiproliferative activity against human HepG2 assessed as reduction in cell viability incubated for 72 hrs by MTT assay. The class given is functional, cell-based. The settings on record: HepG2, 72 h.
A further data set has as its system K562. The data set can be described thus: Antiproliferative activity against human K562 assessed as reduction in cell viability incubated for 72 hrs by MTT assay. The class given is functional, cell-based. The settings on record: K562, 72 h.
The next data set deals with MV4-11. Put plainly: Antiproliferative activity against human MV4-11 assessed as reduction in cell viability incubated for 72 hrs by MTT assay. The class given is functional, cell-based. The settings on record: MV4-11, 72 h.
The test system of the next data set is L02. The data set can be described thus: Cytotoxicity against human L02 cells assessed as reduction in cell viability incubated for 72 hrs by MTT assay. In kind it is cell-based. The settings on record: L02, 72 h.
For data set [6], the target named is T1, Heat shock protein HSP90 (Homo sapiens) (UniProt P07900+P08238). The data set can be described thus: Inhibition of HSP90 in human HCT-116 cells assessed as reduction in AKT protein expression after 24 hrs by Western blot analysis. The class given is cell-based. The settings on record: dose 0.01-3 µM.
Data set [7] concerns the target T1, Heat shock protein HSP90 (Homo sapiens). Put plainly: Inhibition of HSP90 in human HCT-116 cells assessed as reduction in Erk protein expression after 24 hrs by Western blot analysis. In kind it is cell-based. The settings on record: dose 0.01-3 µM.
Data set [8] has the same target. Put plainly: Inhibition of HSP90 in human HCT-116 cells assessed as reduction in phosphorylated Erk after 24 hrs by Western blot analysis. In kind it is cell-based. The settings on record: dose 0.01-3 µM.
Data set [9] shares this target. Put plainly: Inhibition of HSP90 in human HCT-116 cells assessed as induction of HSP70 expression after 24 hrs by Western blot analysis. The class given is cell-based. The settings on record: dose 0.01-3 µM.
Data set [10] can be described thus: Half life in human liver microsomes at 1 uM preincubated for 5 mins followed by NADPH addition and measured up to 120 mins by LC-MS/MS analysis. In kind it is ADME, Microsome. As to conditions: 2 h, time <=125 min.
Data set [11] is described as follows: Intrinsic clearance in human liver microsomes at 1 uM preincubated for 5 mins followed by NADPH addition and measured up to 120 mins by LC-MS/MS analysis. The class given is ADME, Microsome. As to conditions: 2 h, time <=125 min.
The nature of data set [12]: Metabolic stability in human liver microsomes assessed as parent compound remaining at 1 uM preincubated for 5 mins followed by NADPH addition and measured up to 120 mins by LC-MS/MS analysis. In kind it is ADME, Microsome. The settings on record: 2 h, time <=125 min.

Description for HCT-116: Antiproliferative activity against human HCT-116 cells assessed as reduction in cell viability incubated for 72 hrs by MTT assay

In turn, `CCCNc1nc(OCCOC)nc2c1CN(C(=O)c1cc(C(C)C)c(O)cc1O)CC2` registered a logD in data set [1] of 2.92. The IC50 in [2] came to 32 nM; on Endoplasmin it was 796 nM; with HCT-116, 400 nM; in the data set with MCF7, 350 nM. Moreover, the Papp in data set [3] came to 78.7 ×10⁻⁶ cm/s. Further, the concentration in solution in data set [4] (solubility) was 114 µg/mL (≈ 257 µM). Moreover, the Ratio IC50 in [5] was determined as 24.9.
For the compound `COCCOc1nc2c(c(OC(C)C)n1)CN(C(=O)c1cc(C(C)C)c(O)cc1O)CC2`, the pH-dependent lipophilicity (logD) in data set [1] came to 3.84. In addition, the IC50 worked out at 58 nM in [2], 1320 nM at Endoplasmin, 740 nM in the data set with HCT-116 and 250 nM in the data set on MCF7. The Papp in [3] turned out to be 79.4 ×10⁻⁶ cm/s. In data set [4], this compound yielded a solubility of 40.2 µg/mL (≈ 90.2 µM). In addition, in data set [5], the Ratio IC50 was determined as 22.7.
For the compound `COCCOc1nc2c(c(NC(C)C)n1)CN(C(=O)c1cc(C(C)C)c(O)cc1O)CC2`, the pH-dependent lipophilicity (logD) in data set [1] came to 2.98. Also, the IC50 is 30 nM in [2], 787 nM at Endoplasmin, 790 nM in the data set on HCT-116 and 250 nM with MCF7. Besides, in data set [3], the Papp worked out at 62.4 ×10⁻⁶ cm/s. In data set [4], this compound came in with a solubility of 137 µg/mL (≈ 309 µM). The Ratio IC50 in [5] came out at 26.2.
`COCCOc1nc2c(c(OC)n1)CN(C(=O)c1cc(C(C)C)c(O)cc1O)CC2`: the logD in data set [1] amounted to 2.56. Further, the IC50 in data set [2] worked out at 30 nM; at Endoplasmin it was 232 nM; in the data set on HCT-116, 250 nM; with MCF7 it was 140 nM. Further, the Papp in [3] stood at 75.8 ×10⁻⁶ cm/s. The amount in solution in [4] (solubility) came to 93.5 µg/mL (≈ 224 µM). In data set [5], the Ratio IC50 is 7.7.
Compound `CCN(CC)CCOc1ncc2c(n1)CCN(C(=O)c1cc(C(C)C)c(O)cc1O)C2` returned a logD in data set [1] of 1.17. Moreover, the 50% inhibitory concentration (IC50) in [2] worked out at 32 nM; on Endoplasmin it was 217 nM; with HCT-116, 890 nM; in the data set on MCF7, 2900 nM. Also, the Papp in data set [3] came to 25.7 ×10⁻⁶ cm/s. In addition, the solubility in data set [4] came to 151 µg/mL (≈ 353 µM). Besides, in [5], the Ratio IC50 came out at 6.8.
As for `CCCOc1nc(OCCOC)nc2c1CN(C(=O)c1cc(C(C)C)c(O)cc1O)CC2`, the logD in data set [1] turned out to be 3.59. The IC50 in data set [2] amounted to 36 nM; on Endoplasmin, 929 nM; with MDA-MB-231, 122 nM; with MDA-MB-468, 139 nM; in the data set on SK-BR-3, 220 nM; in the data set on T47D it was 178 nM. Also, the IC50 with BT-474 turned out to be 118 nM; with U2OS, 171 nM; in the data set with MKN-28 it was 407 nM; in the data set with A549, 60 nM; in the data set with HepG2 it was 222 nM; in the data set on K562, 150 nM. In addition, the half-inhibitory concentration (IC50) in the data set with MV4-11 is 18 nM; in the data set with L02 it was 30.9 µM; in the data set with HCT-116, 120 nM; in the data set on MCF7, 40 nM. In addition, the Papp in [3] came to 87.7 ×10⁻⁶ cm/s. Moreover, the solubility in [4] is 73.6 µg/mL (≈ 165 µM). In addition, in data set [5], the Ratio IC50 was found to be 25.8. Besides, the inhibition result in data set [6], in [7], in data set [8] and in [9] was “Dose-dependent effect” in each case. The t1/2 in data set [10] worked out at 69 min. This compound also showed a CLint in data set [11] of 13.7 mL/min/kg. For the same compound, the Stabilty in data set [12] was determined as 59.5%.

Usually logD stands for the decadic logarithm of the distribution of all forms, ionised or not, between an organic phase and buffer at a given pH. Lower therefore signals lower lipophilicity. In general, IC50 refers to the concentration that gives 50% inhibition. What is called solubility is the concentration that dissolves in the medium under given conditions.

Values taken from ChEMBL document CHEMBL4706476, “Novel Tetrahydropyrido[4,3-d]pyrimidines as Potent Inhibitors of Chaperone Heat Shock Protein 90” (J Med Chem, 2016).
